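1) Cells in 96-well plates. 2) Compound, 48 h, 5 concentrations. 3) Linear interpolation between surrounding doses. 4) Unreached endpoint = highest concentration. The concentration for full growth arrest is given as TGI.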
Key:
Test in all cases: growth of human tumour cells (NCI), 48 h
K-562 leukemia = system: K-562 leukemia
HCT-15 colon = system: HCT-15 colon
BT-549 breast = system: BT-549 breast
A498 renal = system: A498 renal
SK-MEL-2 melanoma = system: SK-MEL-2 melanoma
HT29 colon = system: HT29 colon
SF-268 CNS = system: SF-268 CNS
SF-295 CNS = system: SF-295 CNS
HOP-92 NSCLC = system: HOP-92 NSCLC
EKVX NSCLC = system: EKVX NSCLC
SN12C renal = system: SN12C renal
UO-31 renal = system: UO-31 renal
LOX IMVI melanoma = system: LOX IMVI melanoma
ACHN renal = system: ACHN renal
SK-MEL-28 melanoma = system: SK-MEL-28 melanoma
SF-539 CNS = system: SF-539 CNS
OVCAR-3 ovarian = system: OVCAR-3 ovarian
SK-MEL-5 melanoma = system: SK-MEL-5 melanoma
M14 melanoma = system: M14 melanoma
MDA-N = system: MDA-N

| SMILES | TGI (K-562 leukemia) [µM] | TGI (HCT-15 colon) [µM] | TGI (BT-549 breast) [µM] | TGI (A498 renal) [µM] | TGI (SK-MEL-2 melanoma) [µM] | TGI (HT29 colon) [µM] | TGI (SF-268 CNS) [µM] | TGI (SF-295 CNS) [µM] | TGI (HOP-92 NSCLC) [µM] | TGI (EKVX NSCLC) [µM] | TGI (SN12C renal) [µM] | TGI (UO-31 renal) [µM] | TGI (LOX IMVI melanoma) [µM] | TGI (ACHN renal) [µM] | TGI (SK-MEL-28 melanoma) [µM] | TGI (SF-539 CNS) [µM] | TGI (OVCAR-3 ovarian) [µM] | TGI (SK-MEL-5 melanoma) [µM] | TGI (M14 melanoma) [µM] | TGI (MDA-N) [µM] |
| --- | --- | --- | --- | --- | --- | --- | --- | --- | --- | --- | --- | --- | --- | --- | --- | --- | --- | --- | --- | --- |
| Nc1nc(Cl)c2ncn(Cc3ccc(CCl)cc3)c2n1 | > 100 | 19.8 | 24.5 | 84.6 | 29.1 | 27.6 | 8.38 | 27.8 | > 100 | 7.22 | 27.1 | 25.4 | 43.9 | 25.1 | 44.4 | 9.89 | 5.5 | 31 | 37.7 |  |
| Nc1ccc2nc(Nc3ccc(F)cc3)cnc2c1 | > 100 | > 100 |  |  | > 100 | > 100 | > 100 | > 100 |  | > 100 | > 100 | > 100 | > 100 | > 100 | > 100 | > 100 | > 100 | > 100 | > 100 |  |
| COc1cccc(NC(=O)/C(CC(=O)CC(c2ccccc2)c2c(O)c3ccccc3oc2=O)=N\NC(C)(C)C)c1OC (stereo not given) | > 100 | > 100 |  | > 100 | > 100 |  | > 100 | > 100 | > 100 | > 100 |  | > 100 | > 100 | > 100 | > 100 | > 100 | > 100 | > 100 | > 100 |  |
| CC(=O)OCC1OC(n2c(-c3ccccc3)c(C(C)=O)c(-c3ccc(Cl)cc3)c(C#N)c2=S)C(OC(C)=O)C(OC(C)=O)C1OC(C)=O (stereo not given) | > 100 | > 100 |  | > 100 |  | > 100 | > 100 | > 100 | 71.5 | > 100 | > 100 |  | > 100 | > 100 | > 100 | > 100 | > 100 | > 100 | > 100 | > 100 |
| CC(=O)OC[C@]1(O)CC[C@@]23CC1C[C@@H]2CCC1C(C)(C)CCC[C@@]13C (stereo not given in full) | 20.3 | 30 |  |  |  | 25.7 | 30.4 | 32 | 27.8 |  | 24.7 | 29.9 | 23.3 | 29.3 | 28.1 | 30.4 | 30.8 | 28.2 | 26.9 |  |
| O=C(NC(CS)C(=O)O)c1cccc2c(=O)c3ccccc3[nH]c12 (stereo not given) | > 100 | > 100 |  | > 100 | > 100 | > 100 | > 100 | > 100 | > 100 | > 100 | > 100 | > 100 | > 100 | > 100 | > 100 |  | > 100 | > 100 | > 100 | > 100 |
| CCCCCCCCCc1cc(-c2ccc(C=O)s2)sc1-c1ccc(C=O)s1 | > 38 | > 72.7 | > 93.6 | 3.12 | 64.4 | > 100 | > 100 | > 100 | 75.8 | > 100 | > 84 | 63.3 | 37 | > 100 | > 100 | > 84.3 | 38.2 | 34.6 | 25 |  |
| CC(=O)OC1COC(Nc2ccc(C(C)=O)cc2)C(OC(C)=O)C1OC(C)=O (stereo not given) | > 100 | > 100 |  | > 100 | > 100 | > 100 | > 100 | > 100 | > 100 | > 100 | > 100 | > 100 | > 100 | > 100 | > 100 | > 100 | > 100 | > 100 | > 100 |  |
| COc1ccc(C(=O)Cc2c(C(=O)c3ccccc3)c3ccccc3n2C(=O)c2ccccc2)cc1 | > 100 | > 100 |  |  | > 100 | > 100 | > 100 | > 100 | > 100 |  |  | > 100 |  | > 100 | > 100 | > 100 | > 100 | 64.3 | > 100 |  |
| CCN=C(NNc1ccc([N+](=O)[O-])cc1)P(=O)(OC(C)C)OC(C)C | > 100 | > 100 |  | > 100 | > 100 |  | > 100 |  | > 100 | > 100 | > 100 | > 100 | > 100 | > 100 | > 100 | > 100 | > 100 | > 100 | > 100 |  |
| Clc1ccc2c(c1)C1C(CO2)C(c2ccccc2)=NN1c1ccccc1 (stereo not given) | 93.8 |  |  | > 100 | 75.4 | > 100 | > 100 | > 100 | 58.9 | 68.6 |  | 53.9 |  | > 100 | > 100 |  | > 100 |  |  |  |
| O/C(=C\c1nc2ccccc2nc1/C=C(\O)c1ccc(Cl)cc1)c1ccccc1 | > 100 | > 100 | > 100 | > 100 | > 100 |  | > 100 | > 100 |  | > 100 | > 100 | > 100 | > 100 | > 100 | > 100 | > 100 |  | > 100 | > 100 |  |
| Cc1ccc2ccccc2c1NC1=NCCO1 | > 100 | > 100 |  |  |  | > 100 | > 100 | > 100 | 46.8 | > 100 | > 100 | > 100 |  | > 100 | > 100 | > 100 |  | > 100 | > 100 |  |
| COc1ccc(C2CC(c3ccccc3)=Nc3c(-c4ccccc4)nnn32)cc1 (stereo not given) | > 100 | > 100 |  | > 100 | > 100 | > 100 | > 100 | > 100 |  |  | > 100 | > 100 | > 100 | > 100 |  | > 100 | > 100 | > 100 | > 100 | > 100 |
| O=C(CC(C(=O)c1ccco1)c1ccsc1)c1ccco1 (stereo not given) | > 100 | > 100 |  | > 100 |  | > 100 | > 100 | > 100 | > 100 | > 100 | > 100 | > 100 | > 100 | > 100 | > 100 | > 100 | > 100 | > 100 | > 100 | > 100 |
| N=C(N)N1CCC(N2CCOCC2)CC1 | > 100 | > 100 |  | > 100 |  | > 100 | > 100 | > 100 | > 100 | > 100 | > 100 | > 100 |  | > 100 | > 100 | > 100 |  | > 100 | > 100 |  |
| O=C1c2ccccc2NC(=O)C2C1C(c1ccccc1)CC2(O)c1ccccc1 (stereo not given) |  | > 100 |  | > 100 | > 100 | > 100 | > 100 | > 100 | 67 | > 100 | > 100 |  | > 100 | > 100 | > 100 | > 100 | > 100 | > 100 | > 100 |  |
| [O-][n+]1onc2c1CCC(=N\O)/C2=N/Nc1ccccc1 | > 100 | > 100 |  | > 100 | > 100 | > 100 | > 100 | > 100 |  | > 100 | > 100 | > 100 | > 100 | > 100 | > 100 | > 100 | > 100 | > 100 | > 100 | > 100 |
| CC(OC(C)(C)C)[C@H](NC(=O)OC(C)(C)C)C(=O)O (stereo not given in full) | > 100 | > 100 | > 100 | > 100 |  | > 100 | > 100 | > 100 | > 100 | > 100 | > 100 | > 100 | > 100 | > 100 |  | > 100 | > 100 | > 100 | > 100 |  |
| CC1(C)O[C@@H]2[C@@H](COC(=O)c3ccccc3)C[C@@H](C#N)[C@@H]2O1 | > 100 | > 100 | > 100 | > 100 |  | > 100 | > 100 | > 100 | > 100 |  | > 100 | > 100 | > 100 | > 100 | > 100 | > 100 | > 100 | > 100 | > 100 |  |
| COC(=O)N1CCc2c(nc(N(C)CCO)[nH]c2=O)C1 | > 100 | > 100 |  | > 100 | > 100 | > 100 | > 100 | > 100 | > 100 | > 100 | > 100 | > 100 | > 100 | > 100 | > 100 | > 100 | > 100 | > 100 | > 100 |  |
| CCOC(=O)C(/C=N\C(=S)Nc1ccc(Cl)c(Cl)c1)=C(/O)c1ccccc1 |  | > 100 |  | 20.4 | 77.1 | > 100 | > 100 | > 100 |  | > 100 | > 100 | 16.6 | > 100 | > 100 | > 100 |  |  | > 100 | > 100 | > 100 |

From PubChem BioAssay (NCI)
